According to patent publication US20220304307A1, “SYNERGISTIC MIXTURES FOR ARTHROPOD TOXICITY AND REPELLENCY” (University of Florida Research Foundation, Incorporated, priority 2019, published 2022):
Read-outs that look alike come from different tables or passages of the source.

Experiments:
[1] = tested on: pyrethroid-resistant Puerto Rico (PR) strain of Ae. aegypti; test: Glass tube spatial repellency assay, resistant strain; assay type: in vivo, Aedes aegypti; parameters: 1 h EC50-PR (repellency): unit not given here; conditions: compound alone; for RR (PR EC50/OR EC50): repellency resistance ratio; for 1 h EC50-PR (repellency): PR strain
Description: (§1) The following assay was conducted according to the procedures of Jiang et al., 2019 (Jiang S., Yang L, and Bloomquist J (2019) High-throughput screening method for evaluating spatial repellency and vapor toxicity to mosquitoes. Med. Vet. Entomol.). For assessing behavioral repellency (FIG. 1), sixteen female Aedes aegypti mosquitoes were transferred to a glass tube (12.5 cm long, 2.5 cm outer diameter) with the ends covered with netting. Metofluthrin, bifenthrin, permethrin, pyrethrum, transfluthrin, deltamethrin, esfenvalerate, metofluthrin acid, bifenthrin acid, phenothrin acid, transchryanthemic acid, transfluthrin acid, deltamethrin acid, and fenvalerate acid were each dissolved in 1 mL of acetone and serial dilutions ranging from 30-0.01 μg/ml were made. Circular filter papers (5 cm^2) were saturated with 50 μL of each concentration and allowed 10 min for solvent evaporation. The filter papers were then placed in clear conical polypropylene caps and fixed to the end of the glass tubes. The netting prevented mosquito contact with the filter paper. Tubes were then aligned with a mark denoting the midline and the proportion of mosquitoes on the chemically treated side was scored at 15, 30, and 60 min. At the end of the test, the tube was placed in a cage and the ability of the mosquitoes to fly out of the tube was assessed for 30 min. […] This post-test evaluated whether any non-responding mosquitoes (not repelled) was due to intoxication or disorientation from the test chemical. For vapor toxicity, the assay was identical, except that mosquitoes were kept in the tube for 24 hr without the post-test at 1 hr, and the mortality was recorded at 24 hr.
EC50 values were calculated from non-linear regression to a four parameter logistic equation (Prism, GraphPad Software, San Diego, Calif.) of the curves shown in FIG. 4. RR=resistance ratio. NA=data not yet available.

[2] = tested on: Orlando insecticide-susceptible strain of Ae. aegypti (female mosquitoes); test: Glass tube spatial repellency assay; assay type: in vivo, Aedes aegypti; parameters: 1 h EC50-OR (repellency): unit not given here; conditions: for repellency EC50 (+TFA): applied as mixture with TFA (50 μg/cm^2); for repellency EC50 (+TFA) / repellency EC50 / 1 h EC50-OR (repellency): 1 hr; for repellency EC50 / 1 h EC50-OR (repellency): compound alone; for synergist ratio SR (EC50 compound alone/EC50 compound+TFA): repellency, TFA 50 μg/cm^2 as mixture; for 15 min repellency ratio / 30 min repellency ratio / 1 hr repellency ratio: horizontal tube, 0.5=0% repellency, 0=100% repellency; for 1 h EC50-OR (repellency): OR strain; for mortality in repellency screening: 100 μg/cm^2, 1 hr exposure
Description: as §1

[3] = tested on: female Ae. aegypti; test: Human arm bite protection assay; assay type: in vivo, Aedes aegypti
Description: A human bite protection assay was performed according to see if the repellency observed in glass tubes extended to bite protection. The assay was run in accordance with that of Tsikolia et al. (Tsikolia M, Bernier UR, Coy M, Chalaire K, Becnel J, Agramonte N, Tabanca N, Wedge D, Clark G, Linthicum K, Swale D, and J. R. Bloomquist J (2013) Insecticidal and fungicidal properties of novel trifluoromethylphenyl amides. Pestic. Biochem. Physiol. 107, 138-147). Treated cloth patches were worn by human volunteers and the number of blood fed mosquitoes was determined after 1 min spent in a cage with 500 (±10%) female Ae. aegypti. Minimum Effective Dosage (MED in mg/cm^2) is the minimum amount required to prevent 99% of bites in three human volunteers (UF IRB #201602334). Synergist ratio (SR)=MED chemical alone/MED chemical+TFA (0.047 mg/cm^2) or TCA (0.094 mg/cm^2).

[4] = tested on: insecticide-susceptible Aedes aegypti (Orlando strain) females; test: Glass tube vapor toxicity assay (24 hr mortality); conditions: for 24 hr mort (%): horizontal tube; for mortality at 100 µg/cm2: Aedes aegypti; for LC50 (24 h vapor toxicity): pyrethroid alone
Description: as §1
Synergism ratio (SR)=LC50 pyrethroid/LC50 pyrethroid+EO.

[5] = tested on: pyrethroid-resistant Puerto Rico strain of Ae. aegypti; test: Glass tube vapor toxicity assay, resistant strain; assay type: in vivo, Aedes aegypti; conditions: for resistance ratio RR, vapor toxicity: pyrethroid alone, Puerto Rico vs Orlando
Description: The netting prevented mosquito contact with the filter paper.
The vapor toxicity of metofluthrin alone and in combination with citronella oil (CO) on susceptible Orlando and pyrethroid-resistant Puerto Rico strains of Ae. aegypti was investigated. The results are provided in Table 10 and in FIGS. 26 and 27. […] Synergism ratio (SR)=LC50 metofluthrin/LC50 metofluthrin+citronella. […] Resistance ratio (RR)=LC50 metofluthrin[…] on Puerto Rico/LC50 metofluthrin on Orlando.
Next, the vapor toxicity of empenthrin applied to two strains of Aedes aegypti, the pyrethroid-susceptible Orlando and pyrethroid-resistant Puerto Rico strain, was investigated. Empenthrin was applied alone and in combination with citronella oil (100 μg/cm^2, a nontoxic exposure). The RR for empenthrin alone was 5.7-fold.

[6] = tested on: PR (resistant) strain of Ae. aegypti antenna; test: Electroantennography (EAG) responses, PR strain; parameters: species or system Aedes aegypti; conditions: 10 mg odorant, air puff
Description: (§2) Electroantennography (EAG) responses of OR (susceptible) and PR (resistant) strains of Ae. Aegypti were then obtained for TF, TFA, and TCA (FIGS. 10A and 10B). In these experiments, an air puff stimulus with odorant was blown over an antenna suspended between 2 electrodes and represented the summed electrical response of all the chemo-receptive hairs. All compounds gave responses, with TF the largest (FIG. 10A).

[7] = tested on: OR (susceptible) strain of Ae. aegypti antenna; test: Electroantennography (EAG) responses, OR strain; parameters: species or system Aedes aegypti; conditions: 10 mg odorant, air puff
Description: as §2

Row | Molecule | RR (PR EC50/OR EC50) [1] | 24 hr mort (%) ([4]; 10 μg/cm^2) | 24 hr mort (%) ([4]; 100 μg/cm^2) | 15 min repellency ratio ([2]; 10 μg/cm^2) | 30 min repellency ratio ([2]; 10 μg/cm^2) | 1 hr repellency ratio ([2]; 10 μg/cm^2) | 15 min repellency ratio ([2]; 100 μg/cm^2) | 30 min repellency ratio ([2]; 100 μg/cm^2) | 1 hr repellency ratio ([2]; 100 μg/cm^2) | further results
1 | CC(C)=C[C@@H]1[C@@H](C(=O)O)C1(C)C (relative stereo) [TCA, 1-R-trans-chrysanthemic acid] | 1.9 |  |  |  |  |  |  |  |  | repellency ([2]; TCA alone at 10 μg/cm^2): 25%; repellency EC50 (+TFA) [2]: 1.3 μg/cm^2; repellency EC50 [2]: 20 μg/cm^2; synergist ratio SR (EC50 compound alone/EC50 compound+TFA) [2]: 15; MED values Female 10 ([3]; as E30, volunteer one): 0.375 mg/cm^2; MED values Female 9 ([3]; as E30, volunteer two): 0.187 mg/cm^2; MED Mean ([3]; mean of three human volunteers): 0.312 mg/cm^2; MED values Male 4 ([3]; minimum amount preventing 99% of bites, treated cloth patch, 1 min in cage, mixtures with TFA 0.047 or TCA 0.094 mg/cm^2): 0.375 mg/cm^2
2 | O=Cc1cccc(O)c1 [3-hydroxybenzaldehyde] |  | 21.9% | 15.6% | 0.56 | 0.53 | 0.56 | 0.41 | 0.41 | 0.56 | 
3 | CC(C)(C)c1cccc(C=O)c1 [3-tert-butylbenzaldehyde] |  | 6.3% | 81.3% | 0.31 | 0.25 | 0.31 |  |  |  | mortality at 100 µg/cm2 ([4]; 0.25 h, read-out: 15 min % mortality): 96.9%; mortality at 100 µg/cm2 ([4]; 0.5 h, read-out: 30 min % mortality): 100%; mortality at 100 µg/cm2 ([4]; 1 h, read-out: 1 hr % mortality): 100%
4 | C=Cc1cccc(C=O)c1 [3-vinylbenzaldehyde] |  | 100.0% | 6.3% | 0.50 | 0.50 | 0.31 | 0.19 | 0.25 | 0.19 | 
5 | CC1(C)C(C=C(Cl)C(F)(F)F)C1C(=O)O (stereo not drawn) [BFA, bifenthrin acid] | 0.8 |  |  |  |  |  |  |  |  | 1 h EC50-PR (repellency) [1]: 11; 1 h EC50-OR (repellency) [2]: 14
6 | CC(C)[C@H](C(=O)O)c1ccc(Cl)cc1 [FVA, fenvalerate acid] | 1.7 |  |  |  |  |  |  |  |  | 
7 | CC=CC1C(C(=O)O)C1(C)C (stereo not drawn) [MFA, metofluthrin acid] | 1.3 |  |  |  |  |  |  |  |  | 1 h EC50-PR (repellency) [1]: 18; 1 h EC50-OR (repellency) [2]: 14
8 | C/C=C/C1C(C(=O)OCc2c(F)c(F)c(COC)c(F)c2F)C1(C)C (stereo not drawn) [Metofluthrin, reference compound] | 60 |  |  |  |  |  |  |  |  | synergism ratio of vapor toxicity, +citronella ([4]; in vivo): 7.6; LC50 (24 h vapor toxicity) [4]: 0.84 μg/cm^2; LC50 +citronella ([4]; with citronella, 24 h): 0.11 μg/cm^2; mortality in repellency screening [2]: significant mortality; resistance ratio RR, vapor toxicity, +citronella oil ([5]; LC50 metofluthrin+CO on Puerto Rico/LC50 metofluthrin on Orlando): 7.3; resistance ratio RR, vapor toxicity [5]: 50.7
9 | CC(C)=CC1C(C(=O)O)C1(C)C (stereo not drawn) [PhenA, phenothrin acid] | 0.8 |  |  |  |  |  |  |  |  | 
10 | CC1(C)[C@H](C=C(Cl)Cl)[C@H]1C(=O)OCc1c(F)c(F)cc(F)c1F [Transfluthrin, reference compound] | 4.7 |  |  |  |  |  |  |  |  | synergism ratio of vapor toxicity, +TFA ([4]; TFA 50 μg/cm^2): 2.3; LC50 (24 h vapor toxicity) [4]: 0.16 μg/cm^2; LC50 +TFA ([4]; with TFA (50 μg/cm^2), 24 h): 0.07 μg/cm^2; mortality in repellency screening [2]: significant mortality; repellency EC50 (+TFA) [2]: 0.11 μg/cm^2; synergism of repellency with citronella ([2]; citronella at its EC20 (20 μg/cm^2)): not; repellency EC50 [2]: 0.5 μg/cm^2; synergist ratio SR (EC50 compound alone/EC50 compound+TFA) [2]: about 5; EAG response in PR strain relative to OR [6]: reduced; EAG response [7]: largest
11 | O=Cc1cccc(-c2ccccc2)c1 [biphenyl-3-carboxaldehyde] |  | 50.0% | 6.3% | 0.44 | 0.38 | 0.38 | 0.44 | 0.31 | 0.19 | 
12 | C#CC(OC(=O)C1C(C=C(C)C)C1(C)C)/C(C)=C/CC (stereo not drawn) [empenthrin] |  |  |  |  |  |  |  |  |  | effect of citronella oil on resistance to vapor toxicity ([5]; citronella oil 100 μg/cm^2, Puerto Rico strain): reversed resistance; resistance ratio RR, vapor toxicity [5]: 5.7
13 | O=Cc1cccc(C=O)c1 [isophthalaldehdye] |  | 40.6% | 87.5% | 0.41 | 0.41 | 0.41 | 0.03 | 0.09 | 0.06 | 
14 | trifluoromethoxybenzaldehyde |  | 6.3% | 0.0% | 0.38 | 0.38 | 0.44 | 0.31 | 0.31 | 0.50 | 
15 | α, α, α-trifluoromethyltolualdehyde |  | 0.0% | 0.0% | 0.38 | 0.44 | 0.31 | 0.38 | 0.50 | 0.63 | 
